Among the data in the NIST ThermoML archive (doi:10.1016/j.jct.2015.07.042) are mass density and activity coefficient values, retold here.

Numbers after ± are expanded uncertainties.

The conditions of series [1]: 100 kPa, Liquid, Vibrating tube method.
A short description of series [2]: activity coefficient (dimensionless); of the first substance listed, at infinite dilution; xn = mol fraction of the nth substance listed. The note with it: 101 kPa, Liquid, Chromatography, x1 = 0.

The mass density is the mass of a sample divided by its volume. In the case of `CCCCn1cc[n+](C)c1.COP(=O)([O-])OC` [1-butyl-3-methyl-1H-imidazolium dimethylphosphate], the mass density in series [1] (293.15 K) is 1166.5 ± 1.5 kg/m3; in series [1] (298.15 K), 1163.2 ± 1.5 kg/m3; in series [1] (303.15 K), 1159.4 ± 1.5 kg/m3; in series [1] (308.15 K) it was 1156.2 ± 1.5 kg/m3; in series [1] (313.15 K), 1152.7 ± 1.5 kg/m3; in series [1] (318.15 K) it was 1149.5 ± 1.5 kg/m3. Moreover, the mass density came out at 1146.1 ± 1.4 kg/m3 in series [1] (323.15 K); 1143 ± 1.4 kg/m3 in series [1] (328.15 K); 1139.7 ± 1.4 kg/m3 in series [1] (333.15 K); 1136.5 ± 1.4 kg/m3 in series [1] (338.15 K); 1133.3 ± 1.4 kg/m3 in series [1] (343.15 K); 1130.1 ± 1.4 kg/m3 in series [1] (348.15 K). For the same molecule, the mass density in series [1] (353.15 K) is recorded as 1126.9 ± 1.4 kg/m3; in series [1] (358.15 K), 1123.7 ± 1.4 kg/m3; in series [1] (363.15 K), 1120.6 ± 1.4 kg/m3; in series [1] (368.15 K), 1117.4 ± 1.4 kg/m3.
Turning to `CCC(=O)CC` [pentan-3-one] + CCCCn1cc[n+](C)c1.CS(=O)(=O)[O-], the activity coefficient turned out to be 4.68 ± 0.32 in series [2] (358.15 K), 4.79 ± 0.33 in series [2] (368.15 K), 4.88 ± 0.33 in series [2] (378.15 K) and 5.09 ± 0.35 in series [2] (388.15 K).
On to `CCC(=O)CC` [pentan-3-one] + CCCCn1cc[n+](C)c1.[Cl-], for which the activity coefficient in series [2] (358.15 K) is 7.6 ± 0.52; in series [2] (368.15 K) it was 7.72 ± 0.53; in series [2] (378.15 K) it was 7.78 ± 0.53; in series [2] (388.15 K), 7.97 ± 0.54.
For `CCCO` [propan-1-ol] + CCCCn1cc[n+](C)c1.COP(=O)([O-])OC, the activity coefficient in series [2] (398.15 K) came out at 0.197 ± 0.029; in series [2] (408.15 K) it was 0.218 ± 0.029; in series [2] (418.15 K), 0.239 ± 0.029; in series [2] (428.15 K), 0.264 ± 0.03.
For `CCCO` [propan-1-ol] + CCCCn1cc[n+](C)c1.CS(=O)(=O)[O-] the same measures were 0.711 ± 0.047, 0.744 ± 0.049, 0.783 ± 0.051 and 0.823 ± 0.053.
For `CCCO` [propan-1-ol] + CCCCn1cc[n+](C)c1.[Cl-], the activity coefficient in series [2] (398.15 K) amounted to 0.408 ± 0.034; in series [2] (408.15 K), 0.434 ± 0.035; in series [2] (418.15 K) it was 0.464 ± 0.036; in series [2] (428.15 K), 0.501 ± 0.038.
As for `CC(C)O` [propan-2-ol] + CCCCn1cc[n+](C)c1.COP(=O)([O-])OC, the activity coefficient in series [2] (398.15 K) is 0.256 ± 0.03; in series [2] (408.15 K), 0.282 ± 0.03; in series [2] (418.15 K), 0.311 ± 0.031; in series [2] (428.15 K), 0.344 ± 0.032.
Taken in the same sequence, the figures for `CC(C)O` [propan-2-ol] + CCCCn1cc[n+](C)c1.CS(=O)(=O)[O-] were 0.835 ± 0.054, 0.878 ± 0.056, 0.928 ± 0.059 and 0.976 ± 0.061.
`CC(C)O` [propan-2-ol] + CCCCn1cc[n+](C)c1.[Cl-]: the activity coefficient turned out to be 0.542 ± 0.04 in series [2] (398.15 K), 0.577 ± 0.041 in series [2] (408.15 K), 0.619 ± 0.043 in series [2] (418.15 K) and 0.668 ± 0.045 in series [2] (428.15 K).
As for `c1ccncc1` [pyridine] + CCCCn1cc[n+](C)c1.COP(=O)([O-])OC, the activity coefficient in series [2] (358.15 K) came to 1.18 ± 0.08; in series [2] (368.15 K), 1.23 ± 0.08; in series [2] (378.15 K), 1.28 ± 0.08; in series [2] (388.15 K), 1.35 ± 0.09.
On to `c1ccncc1` [pyridine] + CCCCn1cc[n+](C)c1.CS(=O)(=O)[O-], for which the activity coefficient in series [2] (358.15 K) was found to be 10.9 ± 0.75; in series [2] (368.15 K), 10.8 ± 0.74; in series [2] (378.15 K) it was 10.6 ± 0.72; in series [2] (388.15 K) it was 10.5 ± 0.71.
`c1ccncc1` [pyridine] + CCCCn1cc[n+](C)c1.[Cl-]: the activity coefficient is 1.47 ± 0.1 in series [2] (358.15 K), 1.55 ± 0.1 in series [2] (368.15 K), 1.64 ± 0.11 in series [2] (378.15 K) and 1.78 ± 0.12 in series [2] (388.15 K).
For `C=Cc1ccccc1` [styrene] + CCCCn1cc[n+](C)c1.COP(=O)([O-])OC the same measures were 2.79 ± 0.19, 2.93 ± 0.2, 3.06 ± 0.21 and 3.26 ± 0.22.
For the molecule `C=Cc1ccccc1` [styrene] + CCCCn1cc[n+](C)c1.CS(=O)(=O)[O-], the activity coefficient in series [2] (358.15 K) worked out at 3.79 ± 0.26; in series [2] (368.15 K), 3.96 ± 0.27; in series [2] (378.15 K), 4.2 ± 0.29; in series [2] (388.15 K) it was 4.4 ± 0.3.
Regarding `C=Cc1ccccc1` [styrene] + CCCCn1cc[n+](C)c1.[Cl-], the activity coefficient is 4.96 ± 0.34 in series [2] (358.15 K), 5.18 ± 0.35 in series [2] (368.15 K), 5.42 ± 0.37 in series [2] (378.15 K) and 5.73 ± 0.39 in series [2] (388.15 K).
For `C1CCOC1` [tetrahydrofuran] + CCCCn1cc[n+](C)c1.COP(=O)([O-])OC, the activity coefficient worked out at 2.79 ± 0.19 in series [2] (358.15 K), 2.84 ± 0.19 in series [2] (368.15 K), 2.89 ± 0.2 in series [2] (378.15 K) and 3.02 ± 0.21 in series [2] (388.15 K).
In the case of `C1CCOC1` [tetrahydrofuran] + CCCCn1cc[n+](C)c1.CS(=O)(=O)[O-], the activity coefficient came out at 3.41 ± 0.23 in series [2] (358.15 K), 3.48 ± 0.24 in series [2] (368.15 K), 3.59 ± 0.24 in series [2] (378.15 K) and 3.72 ± 0.25 in series [2] (388.15 K).
On to `C1CCOC1` [tetrahydrofuran] + CCCCn1cc[n+](C)c1.[Cl-], for which the activity coefficient in series [2] (358.15 K) worked out at 5.66 ± 0.39; in series [2] (368.15 K), 5.67 ± 0.39; in series [2] (378.15 K), 5.67 ± 0.39; in series [2] (388.15 K) it was 5.7 ± 0.39.
For `c1ccsc1` [thiophene] + CCCCn1cc[n+](C)c1.COP(=O)([O-])OC, the activity coefficient in series [2] (358.15 K) turned out to be 1.24 ± 0.08; in series [2] (368.15 K), 1.35 ± 0.09; in series [2] (378.15 K) it was 1.43 ± 0.09; in series [2] (388.15 K), 1.53 ± 0.1.
For the molecule `c1ccsc1` [thiophene] + CCCCn1cc[n+](C)c1.CS(=O)(=O)[O-], the activity coefficient in series [2] (358.15 K) came out at 1.72 ± 0.12; in series [2] (368.15 K), 1.81 ± 0.12; in series [2] (378.15 K), 1.94 ± 0.13; in series [2] (388.15 K), 2.05 ± 0.14.
Consider `c1ccsc1` [thiophene] + CCCCn1cc[n+](C)c1.[Cl-], for which the activity coefficient in series [2] (358.15 K) amounted to 2.04 ± 0.14; in series [2] (368.15 K), 2.16 ± 0.15; in series [2] (378.15 K), 2.27 ± 0.15; in series [2] (388.15 K), 2.41 ± 0.16.
Consider `Cc1ccccc1` [toluene] + CCCCn1cc[n+](C)c1.COP(=O)([O-])OC, for which the activity coefficient in series [2] (358.15 K) worked out at 3.86 ± 0.26; in series [2] (368.15 K) it was 3.99 ± 0.27; in series [2] (378.15 K), 4.09 ± 0.28; in series [2] (388.15 K), 4.29 ± 0.29.
Taken in the same sequence, the figures for `Cc1ccccc1` [toluene] + CCCCn1cc[n+](C)c1.CS(=O)(=O)[O-] were 5.32 ± 0.36, 5.45 ± 0.37, 5.68 ± 0.39 and 5.84 ± 0.4.
In the case of `Cc1ccccc1` [toluene] + CCCCn1cc[n+](C)c1.[Cl-], the activity coefficient in series [2] (358.15 K) came to 7.78 ± 0.53; in series [2] (368.15 K), 7.91 ± 0.54; in series [2] (378.15 K) it was 8.09 ± 0.55; in series [2] (388.15 K) it was 8.36 ± 0.57.
In the case of `C=COC(C)=O` [vinyl acetate] + CCCCn1cc[n+](C)c1.COP(=O)([O-])OC, the activity coefficient in series [2] (358.15 K) was 2.79 ± 0.19; in series [2] (368.15 K), 2.88 ± 0.2; in series [2] (378.15 K) it was 2.99 ± 0.2; in series [2] (388.15 K) it was 3.13 ± 0.21.
`C=COC(C)=O` [vinyl acetate] + CCCCn1cc[n+](C)c1.CS(=O)(=O)[O-]: the activity coefficient in series [2] (358.15 K) turned out to be 3.47 ± 0.24; in series [2] (368.15 K), 3.58 ± 0.24; in series [2] (378.15 K) it was 3.76 ± 0.26; in series [2] (388.15 K), 3.92 ± 0.27.
Take `C=COC(C)=O` [vinyl acetate] + CCCCn1cc[n+](C)c1.[Cl-]: the activity coefficient in series [2] (358.15 K) is 5.66 ± 0.39; in series [2] (368.15 K), 5.74 ± 0.39; in series [2] (378.15 K) it was 5.86 ± 0.4; in series [2] (388.15 K), 6.05 ± 0.41.
Take `O` [water] + CCCCn1cc[n+](C)c1.COP(=O)([O-])OC: the activity coefficient in series [2] (398.15 K) worked out at 0.073 ± 0.03; in series [2] (408.15 K), 0.081 ± 0.03; in series [2] (418.15 K), 0.092 ± 0.03; in series [2] (428.15 K) it was 0.101 ± 0.03.
Regarding `O` [water] + CCCCn1cc[n+](C)c1.CS(=O)(=O)[O-], the activity coefficient in series [2] (398.15 K) came out at 0.2 ± 0.029; in series [2] (408.15 K) it was 0.214 ± 0.029; in series [2] (418.15 K), 0.228 ± 0.029; in series [2] (428.15 K), 0.239 ± 0.029.
Take `O` [water] + CCCCn1cc[n+](C)c1.[Cl-]: the activity coefficient in series [2] (398.15 K) is 0.07 ± 0.03; in series [2] (408.15 K) it was 0.077 ± 0.03; in series [2] (418.15 K), 0.085 ± 0.03; in series [2] (428.15 K), 0.094 ± 0.03.
